# Measured values from patent publication US20010003121A1, “Novel compounds” (AstraZeneca UK Limited, priority 1997, published 2001).
row,Compound,melting point
1,"O=C(NCC12CC3CC(CC(C3)C1)C2)c1cccc([N+](=O)[O-])c1Cl [Example 52, 2-Chloro-3-nitro-N-(tricyclo[3.3.1.1^3,7]dec-1-ylmethyl)-benzamide]",185 °C
2,"CN(C)CCNc1cccc(C(=O)NCC23CC4CC(CC(C4)C2)C3)c1Cl [Example 56, 2-Chloro-3-(N,N-dimethylamino)ethylamino-N-(tricyclo[3.3.1.1^3,7]dec-1-ylmethyl)-benzamide]",221 °C
3,"CN(C)CCNc1ccc(Cl)c(C(=O)NCC23CC4CC(CC(C4)C2)C3)c1 [Example 57, 2-Chloro-5-(N,N-dimethylamino)ethylamino-N-(tricyclo[3.3.1.1^3,7]dec-1-ylmethyl)-benzamide]",215 °C
4,"O=C(NCC12CC3CC(CC(C3)C1)C2)c1cc(NCCNCC(O)c2ccccc2)ccc1Cl (stereo not shown) [Example 69, 5-(N-(2-Hydroxy-2-phenylethyl)-2-aminoethyl)amino-2-chloro-N-(tricyclo[3.3.1.1^3,7]dec-1-ylmethyl)-benzamide]",63 to 64 °C
5,"O=C(NCCC12CC3CC(CC(C3)C1)C2)c1ccccc1Cl [Example 72, 2-Chloro-N-(2-[tricyclo[3.3.1.1^3,7]dec-1-yl]ethyl)-benzamide]",125 to 127 °C
6,"O=C(NCCC12CC3CC(CC(C3)C1)C2)c1cccc(Cl)c1Cl [Example 73, 2,3-Dichloro-N-(2-[tricyclo(3.3.1.1^3,7]dec-1-yl]ethyl)-benzamide]",158 to 159 °C
7,"Nc1ccc(Cl)c(C(=O)NCCC23CC4CC(CC(C4)C2)C3)c1 [Example 74, 5-Amino-2-chloro-N-(2-[tricyclo[3.3.1.1^3,7]dec-1-yl]ethyl)-benzamide]",147 to 149 °C
8,"O=C(NCC12CC3CC(CC(Cl)(C3)C1)C2)c1ccccc1Cl [Example 76, 2-Chloro-N-(3-chloro-tricyclo[3.3.1.1^3,7]dec-1-ylmethyl)-benzamide]",153 °C
9,"O=C(NCC12CC3CC(CC(C3)C1)C2)c1cccc(NCCNCCc2c[nH]cn2)c1Cl [Example 77, 2-Chloro-3-(N-(2-[imidazoyl-4-yl]ethyl)-2-aminoethyl)amino-N-(tricyclo[3.3.1.1^3,7]dec-1-ylmethyl)-benzamide]",86 to 87 °C
10,"Cc1ccc(C)c(C(=O)NCC23CC4CC(CC(Cl)(C4)C2)C3)c1 [Example 78, 2,5-Dimethyl-N-(3-chloro-tricyclo[3.3.1.1^3,7]dec-1ylmethyl)-benzamide]",155 °C

# Next, values leading:
row,melting point,Compound
1,263 to 264 °C,"O=C(NCC12CC3CC(CC(C3)C1)C2)c1cc(O)ccc1Cl [Example 51, 2-Chloro-5-hydroxy-N-(tricyclo[3.3.1.1^3,7]dec-1-ylmethyl)-benzamide]"
2,178 °C,"O=C(NCC12CC3CC(CC(C3)C1)C2)c1cc([N+](=O)[O-])ccc1Cl [Example 53, 2-Chloro-5-nitro-N-(tricyclo[3.3.1.1^3,7]dec-1-ylmethyl)-benzamide]"
3,234 to 235 °C,O=C(NCC12CC3CC(CC(C3)C1)C2)c1cccc(O)c1Cl [Example 59]
4,144 to 147 °C,"CN(C)CCOc1ccc(Cl)c(C(=O)NCC23CC4CC(CC(C4)C2)C3)c1 [Example 60, 2-Chloro-5-(N,N-dimethylamino)ethyloxy-N-(tricyclo[3.3.1.1^3,7]dec-1-ylmethyl)-benzamide]"
5,161 to 162 °C,"O=C(NCC12CC3CC(CC(C3)C1)C2)c1cc(Cl)ccc1Cl [Example 61, 2,5-Dichloro-N-(tricyclo[3.3.1.1^3,7]dec-1-ylmethyl)-benzamide]"
6,163 to 164 °C,"CNc1ccc(Cl)c(C(=O)NCC23CC4CC(CC(C4)C2)C3)c1 [Example 62, 2-Chloro-5-methylamino-N-(tricyclo[3.3.1.1^3,7]dec-1-ylmethyl)-benzamide]"
7,220 °C (dec.),"Cc1c(N)cc(N)cc1C(=O)NCC12CC3CC(CC(C3)C1)C2 [Example 66, 3,5-Diamino-2-methyl-N-(tricyclo[3.3.1.1^3,7]dec-1-ylmethyl)-benzamide]"
8,173 to 175 °C,"COc1cc(OC)c(C)c(C(=O)NCC23CC4CC(CC(C4)C2)C3)c1 [Example 67, 3,5-Dimethoxy-2-methyl-N-(tricyclo[3.3.1.1^3,7]dec-1-ylmethyl)-benzamide]"
9,130 to 133 °C,COc1cc(OC)cc(C(=O)NCC23CC4CC(CC(C4)C2)C3)c1 [Example 68]
10,153 °C,"Cc1ccc(C)c(C(=O)NCCC23CC4CC(CC(C4)C2)C3)c1 [Example 75, 2,5-Dimethyl-N-(2-[tricyclo[3.3.1.1^3,7]dec-1-yl]ethyl)-benzamide]"
11,173 to 175 °C,"COc1cc(OC)c(C)c(C(=O)NCC23CC4CC(CC(Cl)(C4)C2)C3)c1 [Example 79, 3,5-Dimethoxy-2-methyl-N-(3-chloro-tricyclo[3.3.1.1^3,7]dec-1ylmethyl)-benzamide]"
12,161.4 to 161.5 °C,"O=C(NCC12CC3CC(CC(C3)C1)C2)c1cc(I)ccc1Cl [Example 80, 2-Chloro-5-iodo-N-(tricyclo[3.3.1.1^3,7]dec-1-ylmethyl)-benzamide]"
